Columns and labels:
VGLUT1+ puncta = assay: VGLUT1 immunostaining of cortex 21 days after stroke; assay type: in vivo, mouse; details: ipsilesional cortex, in particular deep cortical layers
Experimental: (§1) For immunofluorescent evaluation, sections were deparaffinized, heated three times for 5 min in a microwave oven in 0.01 M citric buffer (pH 6.0), and blocked in PBS containing 0.05% Tween-20 (Sigma) and 1% in Bovine serum albumin (BSA, Sigma) for GAP-43 and synapsin I staining, 3% normal goat serum for VGLUT1 staining or 4% normal donkey serum for GAP-43 double stainings. Goat anti-synapsin la/b antibody (1:150; Santa Cruz, sc-7379) was followed by biotin-conjugated donkey anti-goat immunoglobulin (Ig) secondary antibody (1:200; Jackson Research Lab, 705-065-147) and Cy3-conjugated streptavidin (1:100; Sigma). Guinea pig anti-VGLUT1 (1:500; Millipore, AB5905) was followed by Alexa Fluor 488 goat anti-guinea pig Ig (1:500; Molecular Probes, A11073). […]
(§2) Highest signal intensity single plane images of immunostained sections were obtained by laser scanning confocal microscope (LSM TCS SP2, Leica Microsystems, ×63/NA 1.3 objective for synapsin I and GAP-43; and LSM 700, Carl Zeiss for VGLUT1 ×40/NA 1.3) at 1024×1024 pixels resolution. […] Three standard sections per animal in 160 μm intervals were analysed. […]
(§3) Single-stained images were analysed using MetaMorph® software (Molecular Devices, ver. 2.8.5) to obtain number, average size and intensity of positive punctuate structures per image. […] An experimenter blinded to experimental group performed all image acquisitions and quantifications.

GAP-43+ puncta = assay: GAP-43 immunostaining of cortex 21 days after stroke; assay type: in vivo, mouse
Experimental: as §1, with “A11073). For single staining, mouse anti-GAP-43 antibody (1:1000; Millipore, MAB347), was followed by biotinylated rabbit anti-mouse Ig secondary antibody (1:200; Dako, E0354) and Cy3-conjugated streptavidin (1:100; Sigma).” for “A11073).”
as §2, §3

## C3a: Purified human C3a peptide (Complement Technologies), C3a receptor agonist, amino acid sequence SEQ ID NO: 1
VGLUT1+ puncta
  density and size of VGLUT1+ puncta: higher density and size
GAP-43+ puncta; C3a-treated mice, P=0.012
  increase in density of GAP-43+ puncta, ipsilesional motor cortex vs corresponding contralesional region: ~50%
GAP-43+ puncta; P=0.015
  increase in density of GAP-43+ puncta, ipsilesional motor cortex vs ipsilesional cortex of PBS-treated mice: ~50%
GAP-43+ puncta; between experimental groups
  average size of GAP-43+ puncta: did not differ between the experimental groups
